Results as given in patent publication US12603148B2, “Method for analysis of omics data” (Max-Delbrück-Centrum für Molekulare Medizin in der …, priority 2021, dated 2026).

Tested on: patient derived xenografts (PDX) from localized breast cancer tumors
Experiment: Drug response of breast cancer patient derived xenografts (complete vs non/incomplete response)
Format: in vivo
Conditions: breast cancer PDX library; AC tested on 37 PDXs, Olaparib on 33 PDXs
Protocol: A library of 37 patient derived xenografts (PDX) from localized breast cancer tumors were assayed using RNA-seq to determine gene expression profiles and Exome-seq to detect somatic mutations. AC (a combination of the chemotherapies Adriamycin (doxorubicin) and cyclophosphamide) was tested on the 37 PDXs, and 33 were also treated using Olaparib (a PARP inhibitor). The responses of the PDX to the treatments are categorized into Complete Response and non/incomplete response. […] Thus, the complete response to Olaparib results in 28 False and 5 True samples. The complete response to AC results in 26 False and 11 True samples.

Compound: O=C(c1cc(Cc2n[nH]c(=O)c3ccccc23)ccc1F)N1CCN(C(=O)C2CC2)CC1 [Olaparib]
- samples showing a complete response: 5 samples
- samples showing non- or partial responses: 28 samples
